Test results as given in PMC4899947 (Bioorganic & medicinal chemistry letters, 2016).

Experiments:
[1] = Plasma and brain samples from the oral HIC study; assay type: in vivo, rat; conditions: rats
[2] = tested on: haloperidol-induced catalepsy; assay: Reversal of haloperidol-induced catalepsy; assay type: in vivo, rat; conditions: rats; for reversal of haloperidol-induced catalepsy (in words): p.o.
[3] = biological target: human mGlu4 (Homo sapiens, UniProt Q14833); assay: Calcium mobilization mGlu4 PAM assay; assay type: cell-based
human mGlu4, sequence (Q14833 33-912): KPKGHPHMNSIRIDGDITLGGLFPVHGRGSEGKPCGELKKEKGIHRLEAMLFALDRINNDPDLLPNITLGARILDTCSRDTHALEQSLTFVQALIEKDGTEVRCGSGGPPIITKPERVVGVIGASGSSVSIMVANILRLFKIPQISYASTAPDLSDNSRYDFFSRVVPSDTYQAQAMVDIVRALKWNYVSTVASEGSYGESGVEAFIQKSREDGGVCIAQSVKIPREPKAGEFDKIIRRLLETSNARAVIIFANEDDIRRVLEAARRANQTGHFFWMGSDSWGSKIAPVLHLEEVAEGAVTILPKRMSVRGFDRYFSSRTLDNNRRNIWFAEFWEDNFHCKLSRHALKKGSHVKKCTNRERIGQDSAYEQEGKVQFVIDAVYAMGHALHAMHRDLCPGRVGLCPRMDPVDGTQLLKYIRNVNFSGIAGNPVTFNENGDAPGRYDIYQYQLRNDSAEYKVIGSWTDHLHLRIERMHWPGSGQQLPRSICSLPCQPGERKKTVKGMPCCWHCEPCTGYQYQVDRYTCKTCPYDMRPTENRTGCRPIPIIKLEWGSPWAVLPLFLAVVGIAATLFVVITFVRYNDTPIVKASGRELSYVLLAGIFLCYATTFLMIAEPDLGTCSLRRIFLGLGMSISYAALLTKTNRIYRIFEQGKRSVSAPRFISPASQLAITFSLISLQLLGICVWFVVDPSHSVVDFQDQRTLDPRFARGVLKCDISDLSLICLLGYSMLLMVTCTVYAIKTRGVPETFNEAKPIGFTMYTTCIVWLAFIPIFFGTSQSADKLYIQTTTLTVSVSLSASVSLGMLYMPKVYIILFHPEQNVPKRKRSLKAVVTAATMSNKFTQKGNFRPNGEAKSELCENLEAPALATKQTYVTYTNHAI

[4] = tested on: other mGlu receptors; assay: Selectivity versus the other mGlu receptors

Nc1cccnc1C(=O)Nc1ccc(N2C(=O)c3ccccc3C2=O)c(Cl)c1 [Compound 17a, N-(3-chloro-4-(1,3-dioxoisoindolin-2-yl)phenyl)-3-aminopicolinamide]
total brain level, fold above the rat mGlu4 PAM EC50 [1]: greater than 2 fold | reversal of haloperidol-induced catalepsy at 1 mg/kg p.o. ([2]; 1 mg/kg p.o., haloperidol 1.5 mg/kg, side-by-side with 6): as efficacious as 6 | reversal of haloperidol-induced catalepsy (in words) ([2]; haloperidol 1.5 mg/kg): robust efficacy | mGlu4 PAM activity (in words) [3]: good PAM activity | selectivity versus the other mGlu receptors [4]: excellent selectivity

Nc1cccnc1C(=O)Nc1ccc(N2Cc3ccccc3C2=O)c(Cl)c1 [Compound 17e]
mGlu4 PAM activity (in words) [3]: good PAM activity

CCc1cnc(Oc2ccc(NC(=O)c3ccncc3N)cc2Cl)nc1 [Compound 19]
mGlu4 PAM activity (in words) [3]: devoid of mGlu4 PAM activity

Nc1cccnc1C(=O)Nc1ccc(N2Cc3ccc(Cl)cc3C2=O)c(Cl)c1 [Compound 17g]
mGlu4 PAM activity (in words) [3]: devoid of PAM activity

CCc1cnc(Oc2ccc(NC(=O)c3ncccc3N)cc2Cl)nc1 [Compound 17t]
total brain level, fold above the rat mGlu4 PAM EC50 [1]: greater than 3.5 fold | reversal of haloperidol-induced catalepsy at 3 mg/kg p.o. ([2]; 3 mg/kg p.o., comparable to 6 at 10 mg/kg p.o.): robust reversal | reversal of haloperidol-induced catalepsy (in words) ([2]; haloperidol 1.5 mg/kg): more efficacious than 6 | selectivity versus the other mGlu receptors [4]: excellent selectivity

Nc1cccnc1C(=O)Nc1cccc(Cl)c1 [Compound 7]
fold less potent than 6 ([3]; mGlu4 PAM EC50 relative to 6): ~ 7 fold

Cc1cccc2c1C(=O)N(c1ccc(NC(=O)c3ncccc3N)cc1Cl)C2=O [Compound 17d]
mGlu4 PAM activity (in words) [3]: good PAM activity

COc1ccc2c(c1)C(=O)N(c1ccc(NC(=O)c3ncccc3N)cc1Cl)C2 [Compound 17h]
mGlu4 PAM activity (in words) [3]: good PAM activity

CCc1cnc(Oc2ccc(NC(=O)c3nccnc3N)cc2Cl)nc1 [Compound 20]
fold loss of potency relative to 17t ([3]; mGlu4 PAM EC50 relative to 17t): ~ 5 fold
